These are literature values, as cited in patent US20250194589A1, “AGROCHEMICAL EMULSIFIABLE COMPOSITION” (priority 2022, published 2025).

Assay in data set [1]: not given
This is another data set of the same source.

The mark [2] stands for this setting: measurement method: Flask shaking.

Where two headings read alike, the source gives them in different places.

As for `CCc1nn(C)c(C(=O)NCc2ccc(C(C)(C)C)cc2)c1Cl` [Tebufenpyrad], under setting [2], the LogPow is recorded as 4.93. `CCOc1cc(C(C)(C)C)ccc1C1COC(c2c(F)cccc2F)=N1` (stereo not drawn) [Etoxazole]: the LogPow (measurement method not printed) is given as 5.52 ± 0.58. For the same molecule, the Degree of water-solubility in data set [1] (20° C.) was 70.4 ng/mL. On to `CON=CNC(=O)c1ccc(C2=NOC(c3cc(Cl)cc(Cl)c3)(C(F)(F)F)C2)cc1C` (stereo not drawn) [Fluxametamide], for which the LogPow (measurement method: HPLC) is on record as 5.0. Further, the Degree of water-solubility in data set [1] (20° C.) was 54 ng/mL. As for Emamectin benzoate, the LogPow (measurement method not printed) was 5.7.

On to Milbemectin [Milbemectin (M.A3)], for which the LogPow under setting [2] is greater than 4.94. In addition, the Degree of water-solubility in data set [1] (20° C.) was 880 ng/mL. On to `ClC1=C(Cl)C(Cl)(C2(Cl)C(Cl)=C(Cl)C(Cl)=C2Cl)C(Cl)=C1Cl` [Dienochlor], for which, for the setting “measurement method not printed”, the LogPow is 7.2. Further, the Degree of water-solubility in data set [1] (25° C.) was 26 ng/mL. For Abamectin, the LogPow under setting [2] is given as 4.4 ± 0.3. In addition, in data set [1] (25° C.), the Degree of water-solubility was 1210 ng/mL. For `CC(C)C(C(=O)OC(C#N)c1cccc(Oc2ccccc2)c1)c1ccc(Cl)cc1` (stereo not drawn) [Fenvalerate], the LogPow (measurement method not printed) was 6.53.

Consider `Cc1cc(C)c(C2=C(OC(=O)CC(C)(C)C)C3(CCCC3)OC2=O)c(C)c1` [Spiromesifen], for which the LogPow (measurement method: HPLC) is given as 4.55. Further, the Degree of water-solubility in data set [1] (20° C.) was 130 ng/mL.

As to `CCC(C)(C)C(=O)OC1=C(c2ccc(Cl)cc2Cl)C(=O)OC12CCCCC2` [Spirodiclofen], the LogPow under setting [2] is listed as 5.83. For the same molecule, in data set [1] (20° C.), the Degree of water-solubility was 50 ng/mL. Take `COC(c1ccc(N(C(=O)c2c(C)nn(C)c2C)C(=O)C(C)C)cc1CC(C)C)(C(F)(F)F)C(F)(F)F` [Pyflubumide]: the LogPow under setting [2] was 5.34. Moreover, in data set [1] (20° C.), the Degree of water-solubility is 270 ng/mL. Take `COCCOC(=O)C(C#N)(C(=O)c1ccccc1C(F)(F)F)c1ccc(C(C)(C)C)cc1` (stereo not drawn) [Cyflumetofen]: the LogPow (measurement method: HPLC) was 4.3. With `CCc1nn(C)c(C(=O)NCc2ccc(Oc3ccc(C)cc3)cc2)c1Cl` [Tolfenpyrad], the LogPow entry runs as follows: (measurement method not printed) “Tolfenpyrad (LogPow = 5.61)”; (measurement method not printed, listed as tolfenpyrad) 5.61; under setting [2], 5.6. Besides, the Degree of water-solubility in data set [1] (25° C.) is 87 ng/mL. On to `CCCSP(=S)(OCC)Oc1ccc(Cl)cc1Cl` (stereo not drawn) [Prothiofos], for which the LogPow under setting [2] is given as 5.67. As to `Cc1c(F)c(F)c(COC(=O)[C@@H]2[C@H](/C=C(\Cl)C(F)(F)F)C2(C)C)c(F)c1F` (racemic) [Tefluthrin], under “measurement method not printed”, the LogPow is 6.4. Take `O=C(NC(=O)c1c(F)cccc1F)Nc1cc(Cl)c(OC(F)(F)C(F)C(F)(F)F)cc1Cl` (stereo not drawn) [Lufenuron]: for the setting “measurement method: HPLC”, the LogPow is 5.12. Moreover, the Degree of water-solubility in data set [1] (25° C.) was less than 60 ng/mL. On to `FC(F)(F)c1ccc(OCCCOc2c(Cl)cc(OCC=C(Cl)Cl)cc2Cl)nc1` [Pyridalyl], for which, where the note is “measurement method: HPLC”, the LogPow is on record as 8.1. For the same molecule, in data set [1] (25° C.), the Degree of water-solubility was 0.15 ng/mL.

Take `CC1(C)[C@H](C(=O)O[C@H](C#N)c2cccc(Oc3ccccc3)c2)[C@@H]1/C=C\C(=O)OC(C(F)(F)F)C(F)(F)F` [Acrinathrin]: the LogPow under setting [2] is reported as 5.6. As for `CC1(C)C(C=C(Cl)Cl)C1C(=O)OC(C#N)c1ccc(F)c(Oc2ccccc2)c1` (stereo not drawn) [Cyfluthrin], the LogPow (measurement method not printed) is reported as 6.00.

For `CCOc1ccc(C(C)(C)COCc2cccc(Oc3ccccc3)c2)cc1` [Etofenprox], the LogPow (measurement method: HPLC) is recorded as 6.9. Besides, the Degree of water-solubility in data set [1] (20° C.) is 22.5 ng/mL. As to `Cc1c(COC(=O)[C@@H]2[C@H](/C=C(\Cl)C(F)(F)F)C2(C)C)cccc1-c1ccccc1` (racemic) [Bifenthrin], where the note is “measurement method: HPLC”, the LogPow is recorded as 6.6. Moreover, the Degree of water-solubility in data set [1] (20-25° C.) is less than 0.1 ng/mL. For the molecule Pyrethrin, for the setting “measurement method not printed”, the LogPow is 5.6. The Degree of water-solubility in data set [1] (temperature not given) is 9000 ng/mL. Turning to `CCOP(=S)(OCC)Oc1nc(Cl)c(Cl)cc1Cl` [Chlorpyrifos], the LogPow under setting [2] is 4.70. Besides, in data set [1] (25° C.), the Degree of water-solubility is 941 ng/mL. Consider `CC1(C)C(/C=C(\Cl)C(F)(F)F)C1C(=O)OC(C#N)c1cccc(Oc2ccccc2)c1` (stereo not drawn) [Cyhalothrin], for which, where the note is “measurement method not printed”, the LogPow is reported as 6.9. In addition, the Degree of water-solubility in data set [1] (20° C.) was 4.2 ng/mL.

Regarding `CCOP(=O)(SC(C)CC)SC(C)CC` (stereo not drawn) [Cadusafos], under “measurement method: HPLC”, the LogPow is recorded as 4.08. Milbemectin [Milbemectin (M.A4)]: the LogPow under setting [2] is on record as greater than 5.06. Also, the Degree of water-solubility in data set [1] (20° C.) is 7200 ng/mL.

Consider `CC1(C)C(C=C(Cl)Cl)C1C(=O)OCc1cccc(Oc2ccccc2)c1` (stereo not drawn) [Permethrin], for which the LogPow under setting [2] was 6.36. With Lepimectin, the LogPow (measurement method: HPLC) is recorded as 6.5. Also, the Degree of water-solubility in data set [1] (25° C.) was 103.47 ng/mL. Take `CC(C)(C)c1ccc(CCOc2ncnc3ccccc23)cc1` [Fenazaquin]: the LogPow (measurement method not printed) was 5.71.

`CCCSP(=O)(OCC)Oc1ccc(Br)cc1Cl` (stereo not drawn) [Profenofos]: the LogPow (measurement method not printed) is 4.435. Regarding `CCOC(=O)CCN(SN(C)C(=O)Oc1cccc2c1OC(C)(C)C2)C(C)C` [Benfuracarb], the LogPow under setting [2] was 4.22. As for `CCCOc1cc(C(F)(F)F)ccc1O[C@H]1C[C@H]2CCC[C@@H](C1)N2Oc1ccc(C(F)(F)F)cn1` [Acynonapyr], the LogPow (measurement method not printed) is recorded as 6.5. Besides, the Degree of water-solubility in data set [1] (20° C.) was 0.889 ng/mL. Take `C/C(=N\C#N)N(C)Cc1ccc(Cl)nc1` [Acetamiprid, acetamiprid]: the LogPow entry (measurement method not printed) is given as “Acetamiprid (LogPow = 0.8)” and the LogPow (measurement method not printed, listed as acetamiprid) was 0.8. `Cc1nn(C)c(/C(OC(=O)C(C)(C)C)=C(\C#N)c2ccc(C(C)(C)C)cc2)c1C` [Cyenopyrafen]: the LogPow (measurement method: HPLC) is 5.6. In data set [1] (20° C.), the Degree of water-solubility was 300 ng/mL.

Consider `O=C(NC(=O)c1c(F)cccc1F)Nc1ccc(OC(F)(F)C(F)OC(F)(F)F)c(Cl)c1` (stereo not drawn) [Novaluron], for which the LogPow (measurement method: HPLC) is given as 4.3. In addition, the Degree of water-solubility in data set [1] (20° C.) is 3 ng/mL. On to `Cc1ccc(/N=C/N(C)/C=N/c2ccc(C)cc2C)c(C)c1` [Amitraz], for which, under “measurement method not printed”, the LogPow is 5.5. The Degree of water-solubility in data set [1] (25° C.) was 94 ng/mL. As for `CC(C)[C@H](C(=O)OC(C#N)c1cccc(Oc2ccccc2)c1)c1ccc(OC(F)F)cc1` (stereo partly drawn) [Flucythrinate], under “measurement method not printed”, the LogPow is 4.74. For the molecule `COC(=O)N(C(=O)N1CO[C@@]2(C(=O)OC)Cc3cc(Cl)ccc3C2=N1)c1ccc(OC(F)(F)F)cc1` [Indoxacarb], the LogPow under setting [2] is reported as 4.65. The Degree of water-solubility in data set [1] (25° C.) is 200 ng/mL. Consider `Clc1ccccc1-c1nnc(-c2ccccc2Cl)nn1` [Clofentezine], for which the LogPow (measurement method: HPLC) is reported as 4.1.

As for `CCCCN(CCCC)SN(C)C(=O)Oc1cccc2c1OC(C)(C)C2` [Carbosulfan], the LogPow (measurement method not printed) was 5.45. Besides, the Degree of water-solubility in data set [1] (25° C.) is 3000 ng/mL. In the case of `CC(C)[C@H](Nc1ccc(C(F)(F)F)cc1Cl)C(=O)OC(C#N)c1cccc(Oc2ccccc2)c1` (stereo partly drawn) [Fluvalinate], the LogPow under setting [2] is recorded as 4.26. Also, the Degree of water-solubility in data set [1] (20° C.) is 1.12 ng/mL.
